Data reported in patent publication US20240400507A1, “Substituted Indole Compounds and the Use Thereof” (TROBIO THERAPEUTICS PTY LTD, priority 2021, published 2024).
“Also recorded” adds a separate entry of the source. One block for each compound: values may come before it.

Tests used:
[1] = molecular target: T1, Tpm4.2-containing actin microfilaments (Mus musculus, UniProt Q6IRU2); test: Disruption of Tpm4.2-containing actin microfilaments in PMEF cells, images assessed visually; assay type: cell-based; conditions: for Filament Disruption (minimum test concentration at which filament disruption was observed): primary mouse embryonic fibroblast (PMEF) cells, 24 hours treatment, anti-tropomyosin antibody staining of Tpm4.2
T1 construct: investigated in primary mouse embryonic fibroblast (PMEF) cells; endogenous in cells; host or cells: primary mouse embryonic fibroblast (PMEF) cells
T1 sequence (Q6IRU2 whole entry): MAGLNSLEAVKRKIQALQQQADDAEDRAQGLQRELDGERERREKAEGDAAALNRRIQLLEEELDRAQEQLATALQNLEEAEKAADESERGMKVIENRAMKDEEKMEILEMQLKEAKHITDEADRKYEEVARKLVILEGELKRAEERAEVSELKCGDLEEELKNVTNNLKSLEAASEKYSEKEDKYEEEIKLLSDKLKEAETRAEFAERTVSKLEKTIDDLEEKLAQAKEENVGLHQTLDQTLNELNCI
Description: Example 2—Anti-tropomyosin activity of compounds of formula (I) The ability of compounds of the disclosure to disrupt Tpm4.2-containing actin microfilaments was investigated in primary mouse embryonic fibroblast (PMEF) cells. Cells were seeded at 3×10^4 cells per well in a volume of 1000 μL complete media onto a 12 well plate containing 13 mm coverslips and left to plate down for 24 hours prior to treatment. Cells were then treated with DMSO and two concentrations of the test compounds. 24 hours post-treatment, cells were fixed with 16% paraformaldehyde (PBS) and stained with rabbit polyclonal anti-tropomyosin 6/9d antibody to visualise Tpm4.2. Single plane images were obtained using the Olympus IX83 epi-fluorescence microscope. Ten fields of view were collected for both Tpm4.2 fluorophore and 488-Atto-Phalloidin with each treatment condition. The images were assessed visually to determine if the Tpm4.2 filament network had been disrupted under the treatment condition (Table 1).

[2] = molecular target: T1, Tpm4.2-containing actin microfilaments; test: as above; assay type: cell-based; conditions: PMEF cells stably expressing Tpm4.2 labelled with the NeonGreen fluorophore (footnote a)

Filament Disruption (minimum test concentration at which filament disruption was observed) [1]: 6.5 µM
SMILES: CC(CO)(CO)NCCn1ccc2ccc(C(=O)OCc3ccc(F)cc3)cc21 [Compound 15, 4-fluorobenzyl 1-(2-((1,3-dihydroxy-2-methylpropan-2-yl)amino)ethyl)-1H-indole-6-carboxylate]

Filament Disruption (minimum test concentration at which filament disruption was observed) [1]: 2.0 µM
SMILES: COc1cccc(CCOc2ccc3ccn(CCNC(C)(CO)CO)c3c2)c1 [Compound 20, 2-methyl-2-((2-(6-(3-methoxyphenethoxy)-1H-indol-1-yl)ethyl)amino)propane-1,3-diol]

Filament Disruption (minimum test concentration at which filament disruption was observed) [1]: 9.0 µM
SMILES: COCC(C)(COC)NCCn1ccc2ccc(OCCc3ccc(F)cc3)cc21 [Compound 12, N-(2-(6-(4-fluorophenethoxy)-1H-indol-1-yl)ethyl)-1,3-dimethoxy-2-methylpropan-2-amine]

Filament Disruption (minimum test concentration at which filament disruption was observed) [2]: 3.0^a μM
SMILES: CC(CO)(CO)NCCn1ccc2ccc(OCCc3ccc(F)cc3)cc21 [Compound 4, 2-((2-(6-(4-fluorophenethoxy)-1H-indol-1-yl)ethyl)amino)-2-methylpropane-1,3-diol]

Filament Disruption (minimum test concentration at which filament disruption was observed) [1]: 20 µM
SMILES: Fc1ccc(CCOc2ccc3ccn(CCCN4CCOCC4)c3c2)cc1 [Compound 11, 4-(3-(6-(4-fluorophenethoxy)-1H-indol-1-yl)propyl)morpholine]

Filament Disruption (minimum test concentration at which filament disruption was observed) [2]: 4.0^a μM
SMILES: CC(CO)(CO)NCCn1ccc2ccc(OCCc3cccc(F)c3)cc21 [Compound 3, 2-((2-(6-(3-fluorophenethoxy)-1H-indol-1-yl)ethyl)amino)-2-methylpropane-1,3-diol]

Filament Disruption (minimum test concentration at which filament disruption was observed) [1]: 7.0 µM
SMILES: COc1ccccc1CCOc1ccc2ccn(CCNC(C)(CO)CO)c2c1 [Compound 19, 2-methyl-2-((2-(6-(2-methoxyphenethoxy)-1H-indol-1-yl)ethyl)amino)propane-1,3-diol]

Filament Disruption (minimum test concentration at which filament disruption was observed) [1]: 5.0 µM
SMILES: Cc1ccc(CCOc2ccc3ccn(CCNC(C)(CO)CO)c3c2)cc1 [Compound 18, 2-methyl-2-((2-(6-(4-methylphenethoxy)-1H-indol-1-yl)ethyl)amino)propane-1,3-diol]

Second part, the compound before the results:

SMILES: COc1ccc(CCOc2ccc3ccn(CCNC(C)(CO)CO)c3c2)cc1 [Compound 21, 2-methyl-2-((2-(6-(4-methoxyphenethoxy)-1H-indol-1-yl)ethyl)amino)propane-1,3-diol]
Filament Disruption (minimum test concentration at which filament disruption was observed) [1]: 2.5 µM

SMILES: CC(CO)(CO)NCCn1ccc2ccc(OCCc3ccccc3F)cc21 [Compound 2, 2-((2-(6-(2-fluorophenethoxy)-1H-indol-1-yl)ethyl)amino)-2-methylpropane-1,3-diol]
Filament Disruption (minimum test concentration at which filament disruption was observed) [2]: 4.0^a μM

SMILES: CC(C)(CO)NCCn1ccc2ccc(OCCc3ccc(F)cc3)cc21 [Compound 5, 2-((2-(6-(4-fluorophenethoxy)-1H-indol-1-yl)ethyl)amino)-2-methylpropan-1-ol]
Filament Disruption (minimum test concentration at which filament disruption was observed) [1]: 2.0 µM

SMILES: Cc1cccc(CCOc2ccc3ccn(CCNC(C)(CO)CO)c3c2)c1 [Compound 17, 2-methyl-2-((2-(6-(3-methylphenethoxy)-1H-indol-1-yl)ethyl)amino)propane-1,3-diol]
Filament Disruption (minimum test concentration at which filament disruption was observed) [1]: 2.0 µM

SMILES: CC(CO)(CO)NCCn1ccc2ccc(OCCc3ccc(F)c(F)c3)cc21 [Compound 24, 2-methyl-2-((2-(6-(3,4-difluorophenethoxy)-1H-indol-1-yl)ethyl)amino)propane-1,3-diol]
Filament Disruption (minimum test concentration at which filament disruption was observed) [1]: 2.5 µM

SMILES: CC(CO)(CO)NCCn1ccc2ccc(NCCc3ccc(F)cc3)cc21 [Compound 13, 2-((2-(6-((4-fluorophenethyl)amino)-1H-indol-1-yl)ethyl)amino)-2-methylpropane-1,3-diol]
Effect on Tpm4.2 filament network in representative image (FIG. 1) ([1]; PMEF cells, treatment versus control condition): parallel filament bundles observed in the control condition are lost and punctate aggregations of Tpm4.2 are observed near the nucleus; also recorded: disruption of the Tpm4.2 filament network | Filament Disruption (minimum test concentration at which filament disruption was observed) [1]: 2.0 µM

SMILES: CC(CO)(CO)NCCn1ccc2ccc(OCCc3ccccc3C(F)(F)F)cc21 [Compound 22, 2-methyl-2-((2-(6-(2-(trifluoromethyl)phenethoxy)-1H-indol-1-yl)ethyl)amino)propane-1,3-diol]
Filament Disruption (minimum test concentration at which filament disruption was observed) [1]: 2.5 µM

SMILES: C[C@@H](CO)NCCn1ccc2ccc(OCCc3ccc(F)cc3)cc21 [Compound 7, (S)-2-((2-(6-(4-fluorophenethoxy)-1H-indol-1-yl)ethyl)amino)propan-1-ol]
Filament Disruption (minimum test concentration at which filament disruption was observed) [1]: 2.0 µM

SMILES: CC(C)(C)NCCn1ccc2ccc(OCCc3ccc(F)cc3)cc21 [Compound 10, N-(2-(6-(4-fluorophenethoxy)-1H-indol-1-yl)ethyl)-2-methylpropan-2-amine]
Filament Disruption (minimum test concentration at which filament disruption was observed) [1]: 2.0 µM

SMILES: C[C@H](CO)NCCn1ccc2ccc(OCCc3ccc(F)cc3)cc21 [Compound 8, (R)-2-((2-(6-(4-fluorophenethoxy)-1H-indol-1-yl)ethyl)amino)propan-1-ol]
Filament Disruption (minimum test concentration at which filament disruption was observed) [1]: 2.0 µM

SMILES: CC(CO)(CO)NCCn1ccc2ccc(OCCc3ccccc3)cc21 [Compound 1, 2-((2-(6-phenethoxy-1H-indol-1-yI)ethyl)amino)-2-methylpropane-1,3-diol]
Filament Disruption (minimum test concentration at which filament disruption was observed) [2]: 4.0^a μM

SMILES: Cc1ccc(CCOc2ccc3ccn(CCNC(C)(CO)CO)c3c2)cc1C [Compound 25, 2-methyl-2-((2-(6-(3,4-dimethylphenethoxy)-1H-indol-1-yl)ethyl)amino)propane-1,3-diol]
Filament Disruption (minimum test concentration at which filament disruption was observed) [1]: 2.5 µM

SMILES: Cc1ccccc1CCOc1ccc2ccn(CCNC(C)(CO)CO)c2c1 [Compound 16, 2-methyl-2-((2-(6-(2-methylphenethoxy)-1H-indol-1-yl)ethyl)amino)propane-1,3-diol]
Filament Disruption (minimum test concentration at which filament disruption was observed) [1]: 7.5 µM

SMILES: OCCNCCn1ccc2ccc(OCCc3ccc(F)cc3)cc21 [Compound 9, 2-((2-(6-(4-fluorophenethoxy)-1H-indol-1-yl)ethyl)amino)ethan-1-ol]
Filament Disruption (minimum test concentration at which filament disruption was observed) [1]: 4.0 µM

SMILES: CC(CO)(CO)NCCn1ccc2ccc(C(=O)NCc3ccc(F)cc3)cc21 [Compound 14, 1-(2-((1,3-dihydroxy-2-methylpropan-2-yl)amino)ethyl)-N-(4-fluorobenzyl)-1H-indole-6-carboxamide]
Filament Disruption (minimum test concentration at which filament disruption was observed) [1]: 2.0 µM

SMILES: OCC(CO)NCCn1ccc2ccc(OCCc3ccc(F)cc3)cc21 [Compound 6, 2-((2-(6-(4-fluorophenethoxy)-1H-indol-1-yl)ethyl)amino)propane-1,3-diol]
Filament Disruption (minimum test concentration at which filament disruption was observed) [1]: 4.0 µM
